Laboratory results published in PubChem BioAssay (NCI).
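Protocol summary: plate cells (96-well), add compound at 5 concentrations, incubate 48 h, interpolate endpoints linearly. GI50 = concentration required for 50% inhibition of growth. TGI marks complete inhibition of growth.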

Legend:
Test in all cases: NCI tumour cell line growth inhibition, 48 h
[1] = test system: SN12C renal
[2] = test system: CCRF-CEM leukemia
[3] = test system: SK-OV-3 ovarian
[4] = test system: M14 melanoma
[5] = test system: SW-620 colon
[6] = test system: SNB-19 CNS
[7] = test system: NCI-H226 lung
[8] = test system: HCT-116 colon
[9] = test system: HOP-92 NSCLC
[10] = test system: PC-3 prostate
[11] = test system: UACC-62 melanoma
[12] = test system: SNB-75 CNS
[13] = test system: IGROV1 ovarian
[14] = test system: SF-539 CNS
[15] = test system: HT29 colon
[16] = test system: TK-10 renal
[17] = test system: NCI-H460 lung
[18] = test system: U251 CNS
[19] = test system: NCI-H522 lung
[20] = test system: SF-268 CNS
[21] = test system: T-47D breast
[22] = test system: A549 NSCLC
[23] = test system: A498 renal
[24] = test system: SK-MEL-5 melanoma
[25] = test system: MOLT-4 leukemia
[26] = test system: MALME-3M melanoma
[27] = test system: SK-MEL-28 melanoma
[28] = test system: RXF 393 renal
[29] = test system: KM12 colon
[30] = test system: HCC-2998 colon
[31] = test system: BT-549 breast
[32] = test system: NCI-H23 lung
[33] = test system: DU-145 prostate
[34] = test system: SK-MEL-2 melanoma
[35] = test system: OVCAR-3 ovarian
[36] = test system: OVCAR-5 ovarian
[37] = test system: MCF7 breast
[38] = test system: HOP-62 NSCLC
[39] = test system: EKVX NSCLC
[40] = test system: HCT-15 colon
[41] = test system: UO-31 renal
[42] = test system: LOX IMVI melanoma
[43] = test system: K-562 leukemia
[44] = test system: ACHN renal
[45] = test system: MDA-MB-435
[46] = test system: OVCAR-8 ovarian
[47] = test system: UACC-257 melanoma
[48] = test system: SF-295 CNS
[49] = test system: COLO 205 colon
[50] = test system: CAKI-1 renal
[51] = test system: NCI/ADR-RES ovarian
[52] = test system: MDA-MB-231 breast
[53] = test system: OVCAR-4 ovarian
[54] = test system: 786-0 renal

Q: What does the source list for `Nc1ccccc1C#Cc1ccccc1C#Cc1ccccc1N`?
A: GI50 [1]: 11.4 µM; TGI [1]: 24.5 µM; GI50 [2]: 3.21 µM; TGI [2]: 16.2 µM; GI50 [3]: 15.1 µM; TGI [3]: 35.5 µM; GI50 [4]: 6.62 µM; TGI [4]: 24.5 µM; GI50 [5]: 5.31 µM; TGI [5]: 18.4 µM; GI50 [6]: 23.3 µM; TGI [6]: 65.8 µM; GI50 [7]: 12.7 µM; TGI [7]: 31.1 µM; GI50 [8]: 6.32 µM; TGI [8]: 21.5 µM; GI50 [9]: 3.62 µM; TGI [9]: 15.6 µM; GI50 [10]: 5.31 µM; TGI [10]: 23.3 µM; GI50 [11]: 6.93 µM; TGI [11]: 21.2 µM; GI50 [12]: 23.7 µM; TGI [12]: 70.3 µM; GI50 [13]: 10.2 µM; TGI [13]: 30.4 µM; GI50 [14]: 5.4 µM; TGI [14]: 21.1 µM; GI50 [15]: 5.98 µM; TGI [15]: > 100 µM; GI50 [16]: 4.17 µM; TGI [16]: 20 µM; GI50 [17]: 5.89 µM; TGI [17]: > 100 µM; GI50 [18]: 4.5 µM; TGI [18]: 17.3 µM; GI50 [19]: 3.17 µM; TGI [19]: 11.5 µM; GI50 [20]: 10.6 µM; TGI [20]: 37 µM; GI50 [21]: 17.1 µM; TGI [21]: 38.4 µM; GI50 [22]: 22.1 µM; TGI [22]: > 100 µM; GI50 [23]: 6 µM; TGI [23]: 19.8 µM; GI50 [24]: 9.09 µM; TGI [24]: 22.9 µM; GI50 [25]: 2.12 µM; TGI [25]: 11.9 µM; GI50 [26]: 10.3 µM; TGI [26]: 24.1 µM; GI50 [27]: 15.1 µM; TGI [27]: 87.8 µM; GI50 [28]: 9.74 µM; TGI [28]: 32 µM; GI50 [29]: 2.97 µM; TGI [29]: 14.7 µM; GI50 [30]: 14 µM; TGI [30]: 41 µM; GI50 [31]: 5.41 µM; TGI [31]: 24.7 µM; GI50 [32]: 19.3 µM; TGI [32]: 70.8 µM; GI50 [33]: 11.3 µM; TGI [33]: 28.6 µM; GI50 [34]: 11.3 µM; TGI [34]: 30.2 µM; GI50 [35]: 2.22 µM; TGI [35]: 8.24 µM; GI50 [36]: 27.6 µM; TGI [36]: 67.4 µM; GI50 [37]: 12.4 µM; TGI [37]: > 100 µM; GI50 [38]: 11 µM; TGI [38]: 26.7 µM; GI50 [39]: 8.03 µM; TGI [39]: 32.8 µM; GI50 [40]: 3.42 µM; TGI [40]: 16.8 µM; GI50 [41]: 6.34 µM; TGI [41]: 22.5 µM; GI50 [42]: 7.31 µM; TGI [42]: 20.9 µM; GI50 [43]: 2.01 µM; TGI [43]: 12.8 µM; GI50 [44]: 14 µM; TGI [44]: 29.7 µM; GI50 [45]: 1.31 µM; TGI [45]: 4.39 µM; GI50 [46]: 20.7 µM; TGI [46]: 49.4 µM; GI50 [47]: 30.1 µM; TGI [47]: > 100 µM; GI50 [48]: 3.13 µM; TGI [48]: 10.5 µM; GI50 [49]: 15 µM; TGI [49]: 43.9 µM; GI50 [50]: 4.41 µM; TGI [50]: 18.5 µM; GI50 [51]: 13 µM; TGI [51]: 73.3 µM; GI50 [52]: 9.04 µM; TGI [52]: 24.6 µM; GI50 [53]: 23.3 µM; TGI [53]: 80.9 µM; GI50 [54]: 11.9 µM; TGI [54]: 31.2 µM
